# Measured values taken from ChEMBL document CHEMBL1141234, “Synthesis and SAR of highly potent dual 5-HT1A and 5-HT1B antagonists as potential antidepressant drugs” (Bioorg Med Chem Lett, 2005).
# pKi: −log10 of the molar value. The source made the active and inactive calls. The rule behind the calls is not given here.
# Assays:
# [1] = molecular target: T1, Adrenergic receptor alpha-1 (Homo sapiens, UniProt P35348+P25100+P35368); experiment: Inhibitory activity against Adrenergic alpha-1 receptor; format: protein assay
# T1 sequence (P35348 whole entry): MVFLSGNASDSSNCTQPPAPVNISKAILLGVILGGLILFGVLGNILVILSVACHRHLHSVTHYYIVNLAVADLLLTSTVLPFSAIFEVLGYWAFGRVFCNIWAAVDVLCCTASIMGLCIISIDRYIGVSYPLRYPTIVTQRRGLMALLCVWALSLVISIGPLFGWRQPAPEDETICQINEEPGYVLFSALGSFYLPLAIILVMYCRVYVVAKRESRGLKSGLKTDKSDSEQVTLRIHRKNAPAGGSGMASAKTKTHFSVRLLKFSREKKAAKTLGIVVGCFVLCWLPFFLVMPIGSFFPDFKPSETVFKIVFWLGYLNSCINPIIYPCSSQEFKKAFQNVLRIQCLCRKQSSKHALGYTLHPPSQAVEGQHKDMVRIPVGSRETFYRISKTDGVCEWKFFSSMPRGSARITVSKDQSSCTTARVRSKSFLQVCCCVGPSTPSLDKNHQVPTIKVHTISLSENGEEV
# T1 sequence (P25100 whole entry): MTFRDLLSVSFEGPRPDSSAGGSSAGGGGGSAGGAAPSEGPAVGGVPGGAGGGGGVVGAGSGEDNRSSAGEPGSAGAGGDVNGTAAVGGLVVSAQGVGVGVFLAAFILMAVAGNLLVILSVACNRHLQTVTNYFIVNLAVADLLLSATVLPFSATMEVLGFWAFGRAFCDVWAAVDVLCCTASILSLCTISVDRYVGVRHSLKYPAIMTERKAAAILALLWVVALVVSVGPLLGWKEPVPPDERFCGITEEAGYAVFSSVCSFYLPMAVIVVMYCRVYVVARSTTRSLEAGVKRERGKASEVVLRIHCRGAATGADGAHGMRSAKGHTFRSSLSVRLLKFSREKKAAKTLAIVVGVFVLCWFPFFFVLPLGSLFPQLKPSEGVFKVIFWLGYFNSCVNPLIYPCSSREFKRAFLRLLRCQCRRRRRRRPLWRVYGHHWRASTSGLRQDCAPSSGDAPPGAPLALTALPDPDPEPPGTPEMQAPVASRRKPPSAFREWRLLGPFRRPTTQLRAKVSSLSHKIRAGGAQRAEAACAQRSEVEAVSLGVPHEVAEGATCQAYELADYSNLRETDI
# T1 sequence (P35368 whole entry): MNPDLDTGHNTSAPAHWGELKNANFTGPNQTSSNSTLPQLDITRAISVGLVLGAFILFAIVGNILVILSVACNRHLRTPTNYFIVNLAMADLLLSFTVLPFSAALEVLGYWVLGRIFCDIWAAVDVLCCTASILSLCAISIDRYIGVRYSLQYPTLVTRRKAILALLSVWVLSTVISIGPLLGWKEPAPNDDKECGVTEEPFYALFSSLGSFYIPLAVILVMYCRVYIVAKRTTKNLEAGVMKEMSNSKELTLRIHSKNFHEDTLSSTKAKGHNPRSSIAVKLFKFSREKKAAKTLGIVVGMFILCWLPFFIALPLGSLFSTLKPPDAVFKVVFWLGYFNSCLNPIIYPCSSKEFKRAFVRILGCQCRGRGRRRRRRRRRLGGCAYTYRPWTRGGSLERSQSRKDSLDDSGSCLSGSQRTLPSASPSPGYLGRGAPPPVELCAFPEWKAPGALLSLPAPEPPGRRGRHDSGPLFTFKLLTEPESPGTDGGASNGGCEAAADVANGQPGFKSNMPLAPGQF
# [2] = molecular target: T2, 5-hydroxytryptamine receptor 1A (Rattus norvegicus, UniProt P19327); experiment: Binding affinity for rat 5HT1A receptor
# T2 sequence (P19327 whole entry): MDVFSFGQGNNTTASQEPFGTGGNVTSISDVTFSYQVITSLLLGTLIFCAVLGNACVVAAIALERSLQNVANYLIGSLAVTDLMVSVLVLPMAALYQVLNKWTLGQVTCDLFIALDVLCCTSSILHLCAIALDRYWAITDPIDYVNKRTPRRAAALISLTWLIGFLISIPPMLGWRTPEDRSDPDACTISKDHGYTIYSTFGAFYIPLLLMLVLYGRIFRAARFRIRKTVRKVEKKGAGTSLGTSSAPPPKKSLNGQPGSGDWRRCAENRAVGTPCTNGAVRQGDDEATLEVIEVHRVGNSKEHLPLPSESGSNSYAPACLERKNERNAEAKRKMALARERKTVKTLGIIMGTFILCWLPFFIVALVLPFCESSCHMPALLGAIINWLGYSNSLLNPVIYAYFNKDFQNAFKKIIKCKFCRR
# [3] = molecular target: 5-hydroxytryptamine receptor 1B (Rattus norvegicus, UniProt P28564); experiment: Binding affinity for rat 5HT1B receptor
# [4] = molecular target: 5-hydroxytryptamine receptor 1B (Homo sapiens, UniProt P28222); experiment: Intrinsic activity for 5HT1B receptor in FLIPR assay; format: functional
# [5] = Oral bioavailability in rat at 10 mg/kg, po; format: ADME, organism-based; conditions: in vivo
# [6] = Ratio of drug level in brain against plasma in rat; format: ADME, organism-based; conditions: read-out: BBR
# Rattus norvegicus = species on record: Rattus norvegicus; experiment: Electrically stimulated [3H]5-HT release from rat brain cortical slices at 0.1 uM; format: functional, tissue-based
# [7] = molecular target: T3, 5-hydroxytryptamine receptor 1A (Homo sapiens) (UniProt P08908); experiment: Intrinsic activity for 5HT1A receptor in [35S]GTP-gamma-S assay; format: functional
# T3 sequence (whole entry): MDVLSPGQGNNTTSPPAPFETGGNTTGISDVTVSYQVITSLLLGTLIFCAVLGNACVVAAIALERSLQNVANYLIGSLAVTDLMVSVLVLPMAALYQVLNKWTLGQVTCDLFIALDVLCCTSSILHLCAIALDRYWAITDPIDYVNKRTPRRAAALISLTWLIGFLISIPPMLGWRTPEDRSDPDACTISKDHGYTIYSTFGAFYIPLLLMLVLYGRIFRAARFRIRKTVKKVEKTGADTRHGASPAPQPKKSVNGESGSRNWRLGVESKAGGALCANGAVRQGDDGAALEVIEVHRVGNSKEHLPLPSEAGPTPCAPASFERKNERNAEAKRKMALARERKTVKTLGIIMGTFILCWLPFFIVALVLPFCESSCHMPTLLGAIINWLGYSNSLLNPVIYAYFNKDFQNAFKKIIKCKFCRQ
# [8] = molecular target: 5-hydroxytryptamine receptor 2A (Homo sapiens, UniProt P28223); experiment: Inhibitory activity against 5HT2A receptor
# [9] = molecular target: 5-hydroxytryptamine receptor 5A (Homo sapiens, UniProt P47898); experiment: Inhibitory activity against 5HT5A receptor
# [10] = molecular target: 5-hydroxytryptamine receptor 7 (Homo sapiens, UniProt P34969); experiment: Inhibitory activity against 5HT7 receptor
# D(3) dopamine receptor = D(3) dopamine receptor (Homo sapiens, UniProt P35462); experiment: Inhibitory activity against dopamine D3 receptor
# Mus musculus = experiment: In vivo mouse forced swim test at 30 mg/kg, ip; format: functional, organism-based; design: dose 30 mg/kg
# [11] = molecular target: Sodium-dependent serotonin transporter (Homo sapiens) (UniProt P31645); experiment: Inhibitory activity against SERT upto 10 uM
# [12] = molecular target: T3, 5-hydroxytryptamine receptor 1A (Homo sapiens); experiment: Functional activity in [35S]GTP-gamma-S assay for 5HT1A receptor; conditions: filed as antagonist
# Sodium-dependent serotonin transporter (Homo sapiens), sequence (P31645 whole entry, looked up): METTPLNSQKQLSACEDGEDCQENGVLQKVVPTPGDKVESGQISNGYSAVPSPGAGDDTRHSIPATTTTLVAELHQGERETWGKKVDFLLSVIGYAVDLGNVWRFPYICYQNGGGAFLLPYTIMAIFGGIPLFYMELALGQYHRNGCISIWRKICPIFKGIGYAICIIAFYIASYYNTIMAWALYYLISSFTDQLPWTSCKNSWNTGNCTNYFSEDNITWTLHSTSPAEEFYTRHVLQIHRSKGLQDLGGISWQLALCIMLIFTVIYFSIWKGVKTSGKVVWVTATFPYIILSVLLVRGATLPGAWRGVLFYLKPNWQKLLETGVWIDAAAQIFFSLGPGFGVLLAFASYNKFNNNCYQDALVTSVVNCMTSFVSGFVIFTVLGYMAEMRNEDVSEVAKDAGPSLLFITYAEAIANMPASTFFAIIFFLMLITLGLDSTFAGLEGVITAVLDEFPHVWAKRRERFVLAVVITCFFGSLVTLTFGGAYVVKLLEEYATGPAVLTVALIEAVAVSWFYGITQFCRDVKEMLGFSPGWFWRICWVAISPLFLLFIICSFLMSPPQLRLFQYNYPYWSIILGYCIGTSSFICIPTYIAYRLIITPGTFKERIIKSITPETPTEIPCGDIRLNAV
# 5-hydroxytryptamine receptor 7, sequence (P34969 whole entry): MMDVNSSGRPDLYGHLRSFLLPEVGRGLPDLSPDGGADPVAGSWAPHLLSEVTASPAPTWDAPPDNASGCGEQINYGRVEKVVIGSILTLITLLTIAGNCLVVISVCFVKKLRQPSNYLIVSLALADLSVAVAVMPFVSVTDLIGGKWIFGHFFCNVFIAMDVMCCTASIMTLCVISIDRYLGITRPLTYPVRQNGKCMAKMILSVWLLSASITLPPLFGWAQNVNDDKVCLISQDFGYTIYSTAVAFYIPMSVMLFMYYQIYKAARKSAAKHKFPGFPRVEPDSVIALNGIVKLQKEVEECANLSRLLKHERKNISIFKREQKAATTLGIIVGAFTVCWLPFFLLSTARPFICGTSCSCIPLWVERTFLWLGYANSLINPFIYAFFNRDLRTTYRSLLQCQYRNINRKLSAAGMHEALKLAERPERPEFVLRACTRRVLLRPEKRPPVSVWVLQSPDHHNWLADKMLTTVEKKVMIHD
# 5-hydroxytryptamine receptor 1B (Homo sapiens, UniProt P28222), sequence (P28222 whole entry): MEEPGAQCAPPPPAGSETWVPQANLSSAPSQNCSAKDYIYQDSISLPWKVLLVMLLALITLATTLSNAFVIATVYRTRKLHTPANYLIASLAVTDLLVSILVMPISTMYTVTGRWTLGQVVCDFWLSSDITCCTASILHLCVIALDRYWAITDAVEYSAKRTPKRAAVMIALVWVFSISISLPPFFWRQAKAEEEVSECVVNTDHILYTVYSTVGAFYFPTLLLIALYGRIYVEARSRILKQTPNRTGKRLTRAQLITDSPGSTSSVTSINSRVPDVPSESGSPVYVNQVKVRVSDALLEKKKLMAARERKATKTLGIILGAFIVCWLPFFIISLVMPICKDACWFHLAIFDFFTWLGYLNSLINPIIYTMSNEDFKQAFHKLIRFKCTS
# 5-hydroxytryptamine receptor 2A, sequence (P28223 whole entry): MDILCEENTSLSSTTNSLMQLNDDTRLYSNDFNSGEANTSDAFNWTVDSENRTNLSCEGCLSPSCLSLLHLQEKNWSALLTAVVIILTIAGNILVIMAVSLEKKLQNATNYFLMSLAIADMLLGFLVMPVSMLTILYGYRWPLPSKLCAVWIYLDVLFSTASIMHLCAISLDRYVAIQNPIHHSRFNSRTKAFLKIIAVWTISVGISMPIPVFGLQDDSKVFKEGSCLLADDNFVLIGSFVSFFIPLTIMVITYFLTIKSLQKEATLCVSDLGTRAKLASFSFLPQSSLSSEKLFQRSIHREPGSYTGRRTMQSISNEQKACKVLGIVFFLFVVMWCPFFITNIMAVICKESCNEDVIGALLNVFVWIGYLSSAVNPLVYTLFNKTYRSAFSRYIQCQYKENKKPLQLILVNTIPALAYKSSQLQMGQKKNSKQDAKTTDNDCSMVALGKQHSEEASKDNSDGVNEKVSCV
# 5-hydroxytryptamine receptor 1B (Rattus norvegicus, UniProt P28564), sequence (P28564 whole entry): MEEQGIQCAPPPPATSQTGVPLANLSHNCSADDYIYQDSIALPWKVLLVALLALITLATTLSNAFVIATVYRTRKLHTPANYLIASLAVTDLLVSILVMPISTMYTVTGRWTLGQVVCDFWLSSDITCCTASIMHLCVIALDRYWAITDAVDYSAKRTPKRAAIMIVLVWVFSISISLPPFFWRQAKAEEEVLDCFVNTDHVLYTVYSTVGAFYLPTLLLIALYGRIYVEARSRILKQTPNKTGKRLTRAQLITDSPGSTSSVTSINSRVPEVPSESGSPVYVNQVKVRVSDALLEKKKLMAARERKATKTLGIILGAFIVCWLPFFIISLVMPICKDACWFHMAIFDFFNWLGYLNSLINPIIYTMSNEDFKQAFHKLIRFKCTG
# 5-hydroxytryptamine receptor 5A, sequence (P47898 whole entry): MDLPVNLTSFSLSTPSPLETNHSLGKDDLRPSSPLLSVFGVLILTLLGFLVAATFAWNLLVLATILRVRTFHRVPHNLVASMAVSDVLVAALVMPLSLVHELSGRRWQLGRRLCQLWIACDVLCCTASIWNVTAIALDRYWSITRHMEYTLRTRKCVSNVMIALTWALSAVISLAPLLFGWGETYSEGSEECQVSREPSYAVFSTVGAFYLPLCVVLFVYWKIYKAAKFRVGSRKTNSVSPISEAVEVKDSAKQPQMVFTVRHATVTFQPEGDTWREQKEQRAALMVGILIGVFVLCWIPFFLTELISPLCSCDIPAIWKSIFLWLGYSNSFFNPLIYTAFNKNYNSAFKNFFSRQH
# D(3) dopamine receptor, sequence (P35462 whole entry): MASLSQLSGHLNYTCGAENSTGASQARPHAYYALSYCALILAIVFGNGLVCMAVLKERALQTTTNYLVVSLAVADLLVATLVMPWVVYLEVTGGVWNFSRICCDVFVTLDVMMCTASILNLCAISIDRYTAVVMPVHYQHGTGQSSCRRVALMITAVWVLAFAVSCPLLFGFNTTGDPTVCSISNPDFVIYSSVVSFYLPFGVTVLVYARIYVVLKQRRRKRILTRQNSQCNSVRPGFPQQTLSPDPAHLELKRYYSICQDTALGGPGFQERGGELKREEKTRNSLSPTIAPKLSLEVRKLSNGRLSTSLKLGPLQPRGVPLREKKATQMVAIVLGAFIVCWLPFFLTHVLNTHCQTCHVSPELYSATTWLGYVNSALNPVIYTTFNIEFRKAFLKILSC
compound,measurement,setting,value
CN1CCc2c(sc3ncn(CCN4CCN(c5cncc6ccccc56)CC4)c(=O)c23)C1,Ki,[1],13.7 nM
same,pKi,[2],7.79
same,pKi,[3],7.48
same,Emax,[4],7%
same,bioavailability,[5],11%
same,Kp,[6],10.2
same,Activity,Rattus norvegicus,Dose-dependent effect
same,Emax,[7],4%
same,pKi,[8],6.74
same,pKi,[9],< 5.00
same,pKi,[10],6.28
same,pKi,D(3) dopamine receptor,8.93
same,Activity,Mus musculus,inactive
same,Activity,[11],inactive
same,Activity,[12],Antagonist
